In patent publication US10645928B2, “Pesticidally active polycyclic derivatives with sulfur containing substituents” (Syngenta Participations AG, priority 2014, dated 2020):

Key:
Format in all cases: in vivo
[1] = tested on: Diabrotica balteata (Corn Root Worm); test: Example B2: Diabrotica balteata, sprayed maize sprouts, mortality and growth inhibition; conditions: 96 h, application rate of 200 ppm, L2 larvae, 4 days after infestation, read-out: effect in at least one of the two categories (mortality or growth inhibition)
Protocol: (§1) Maize sprouts placed onto an agar layer in 24-well microtiter plates were treated with aqueous test solutions prepared from 10,000 ppm DMSO stock solutions by spraying. After drying, the plates were infested with L2 larvae (6 to 10 per well). The samples were assessed for mortality and growth inhibition in comparison to untreated samples 4 days after infestation.

[2] = tested on: Diabrotica balteata (Corn Root Worm); test: Example B3: Diabrotica balteata, sprayed maize sprouts, mortality; conditions: 96 h, application rate of 200 ppm, L2 larvae, 4 days after infestation
Protocol: as §1, with “mortality” for “mortality and growth inhibition in comparison to untreated samples”

[3] = tested on: Euschistus heros (Neotropical Brown Stink Bug); test: Example B6: Euschistus heros, sprayed soybean leaves, mortality and growth inhibition; conditions: 120 h, application rate of 200 ppm, N2 nymphs, 5 days after infestation, read-out: effect in at least one of the two categories (mortality or growth inhibition)
Protocol: Soybean leaves on agar in 24-well microtiter plates were sprayed with aqueous test solutions prepared from 10,000 ppm DMSO stock solutions. After drying the leaves were infested with N2 nymphs. The samples were assessed for mortality and growth inhibition in comparison to untreated samples 5 days after infestation.

[4] = tested on: Frankliniella occidentalis (Western Flower Thrips); test: Example B7: Frankliniella occidentalis, sprayed sunflower leaf discs, mortality; conditions: foliar, 168 h, application rate of 200 ppm, population of mixed ages, 7 days after infestation
Protocol: (§2) Sunflower leaf discs were placed on agar in 24-well microtiter plates and sprayed with aqueous test solutions prepared from 10,000 DMSO stock solutions. After drying the leaf discs were infested with a Frankliniella population of mixed ages. The samples were assessed for mortality 7 days after infestation.

[5] = tested on: Myzus persicae (Green Peach Aphid); test: Example B8: Myzus persicae, sprayed sunflower leaf discs, mortality; conditions: foliar, 144 h, application rate of 200 ppm, leaf disc spray, aphid population of mixed ages, 6 days after infestation
Protocol: Sunflower leaf discs were placed onto agar in a 24-well microtiter plate and sprayed with aqueous test solutions prepared from 10,000 ppm DMSO stock solutions. After drying, the leaf discs were infested with an aphid population of mixed ages. The samples were assessed for mortality 6 days after infestation.

[6] = tested on: Plutella xylostella (Diamond Back Moth); test: Example B10: Plutella xylostella, treated artificial diet, growth inhibition; conditions: 120 h, application rate of 200 ppm, L2 larvae, 5 days after infestation
Outline: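 Artificial diet treated with aqueous dilutions prepared from 10,000 ppm DMSO stocks, dried, then infested with 10-15 L2 larvae per well. Growth inhibition scored against untreated samples 5 days after infestation.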

[7] = tested on: Plutella xylostella (Diamond Back Moth); test: Example B13: Plutella xylostella, treated artificial diet, mortality and growth inhibition; conditions: 120 h, application rate of 200 ppm, L2 larvae, 5 days after infestation, read-out: effect in at least one of the two categories (mortality or growth inhibition)
Protocol: 24-well microtiter plates with artificial diet were treated with aqueous test solutions prepared from 10,000 ppm DMSO stock solutions by pipetting. After drying, the plates were infested with L2 larvae (10 to 15 per well). The samples were assessed for mortality and growth inhibition in comparison to untreated samples 5 days after infestation.

[8] = tested on: Spodoptera littoralis (Egyptian Cotton Leaf Worm); test: Example B14: Spodoptera littoralis, sprayed cotton leaf discs, anti-feeding effect; conditions: foliar, 72 h, application rate of 200 ppm, L1 larvae, 3 days after infestation
Outline: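 Cotton leaf discs on agar sprayed with aqueous test solutions made from 10,000 ppm DMSO stocks, dried, then infested with five L1 larvae. Anti-feeding effect scored 3 days after infestation against untreated discs; control counted when anti-feedant effect exceeds untreated.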

[9] = tested on: Spodoptera littoralis (Egyptian Cotton Leaf Worm); test: Example B18: Spodoptera littoralis, compound in agar absorbed by lettuce roots, mortality, anti-feedant effect and growth inhibition; conditions: 144 h, test rate of 12.5 ppm, uptake by lettuce roots, Spodoptera eggs, 6 days after infestation, read-out: effect in at least one of the three categories (mortality, anti-feeding, or growth inhibition)
Outline: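 Compound from 10,000 ppm DMSO stock mixed into agar; lettuce seeds grew 7 days, taking compound up via roots into the lid plate. Cut leaves infested with Spodoptera eggs; mortality, anti-feedant effect and growth inhibition scored against untreated samples 6 days after infestation.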

[10] = tested on: Spodoptera littoralis (Egyptian Cotton Leaf Worm); test: Example B19: Spodoptera littoralis, compound in agar absorbed by lettuce roots, anti-feedant effect; conditions: 144 h, test rate of 12.5 ppm, uptake by lettuce roots, Spodoptera eggs, 6 days after infestation, read-out: anti-feeding
Outline: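 Compound from DMSO stock mixed into agar; lettuce seedlings took it up via roots over 7 days, then cut leaves were infested with Spodoptera eggs. Anti-feedant effect scored 6 days after infestation relative to untreated samples.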

[11] = tested on: Thrips tabaci (Onion Thrips); test: Example B22: Thrips tabaci, sprayed sunflower leaf discs, mortality; conditions: foliar, 144 h, application rate of 200 ppm, thrips population of mixed ages, 6 days after infestation
Protocol: as §2, with “10,000 ppm” for “10,000”, “thrips” for “Frankliniella”, “6” for “7”

[12] = tested on: Aedes aegypti (Yellow Fever Mosquito); test: Example B23: Aedes aegypti, dry deposits in 12 well tissue culture plates, control; conditions: application rate of 200 ppm in ethanol, adult females, after 48 h and/or 24 h
Protocol: Test solutions, at an application rate of 200 ppm in ethanol, were applied to 12 well tissue culture plates. Once the deposits were dry, five, two to five day old adult female Aedes aegypti were added to each well, and sustained with a 10% sucrose solution in a cotton wool plug. Assessment of knockdown was made one hour after introduction, and mortality was assessed at 24 and 48 hours after introduction.

CCS(=O)(=O)c1cc(C(C#N)CCBr)cnc1-c1cn2cnc(C(F)(F)F)cc2n1 (stereo not drawn) [Compound P13, 4-bromo-2-[5-ethylsulfonyl-6-[7-(trifluoromethyl)imidazo[1,2-c]pyrimidin-2-yl]-3-pyridyl]butanenitrile]
≥ 80%: percent effect (mortality or growth inhibition) at 200 ppm [1] | mortality at 200 ppm [2] | percent effect (mortality or growth inhibition) at 200 ppm [3] | mortality at 200 ppm [4] | mortality at 200 ppm [5] | inhibition at 200 ppm [6] | percent effect (mortality or growth inhibition) at 200 ppm [7] | pest or weed control at 200 ppm [8] | percent effect (mortality, anti-feeding or growth inhibition) at 12.5 ppm [9] | pest or weed control at 12.5 ppm [10] | mortality at 200 ppm [11] | pest or weed control at 200 ppm [12]
